Biological target: USP14 (Homo sapiens, UniProt P54578)
Test: USP14 inhibition assay
Type: biochemical
Settings: not given
Text: The IC50 values in the Table below represent the average value from three experimental determinations.
These IC50 values represent the average value from three experimental determinations.

USP14, sequence (P54578 whole entry): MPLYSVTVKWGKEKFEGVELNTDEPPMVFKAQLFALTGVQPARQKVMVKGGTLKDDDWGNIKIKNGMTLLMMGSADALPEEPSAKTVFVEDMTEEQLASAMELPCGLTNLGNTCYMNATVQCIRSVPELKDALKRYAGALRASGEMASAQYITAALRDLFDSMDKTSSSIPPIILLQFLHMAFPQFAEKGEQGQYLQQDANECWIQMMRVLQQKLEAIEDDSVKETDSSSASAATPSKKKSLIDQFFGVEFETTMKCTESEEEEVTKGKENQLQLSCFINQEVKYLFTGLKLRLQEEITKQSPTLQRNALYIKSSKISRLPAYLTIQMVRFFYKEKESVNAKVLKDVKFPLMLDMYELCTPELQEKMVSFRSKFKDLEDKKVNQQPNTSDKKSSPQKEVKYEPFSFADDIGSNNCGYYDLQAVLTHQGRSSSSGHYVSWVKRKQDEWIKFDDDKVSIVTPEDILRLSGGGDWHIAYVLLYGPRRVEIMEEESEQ
USP14, sequence (Q13200 whole entry partner): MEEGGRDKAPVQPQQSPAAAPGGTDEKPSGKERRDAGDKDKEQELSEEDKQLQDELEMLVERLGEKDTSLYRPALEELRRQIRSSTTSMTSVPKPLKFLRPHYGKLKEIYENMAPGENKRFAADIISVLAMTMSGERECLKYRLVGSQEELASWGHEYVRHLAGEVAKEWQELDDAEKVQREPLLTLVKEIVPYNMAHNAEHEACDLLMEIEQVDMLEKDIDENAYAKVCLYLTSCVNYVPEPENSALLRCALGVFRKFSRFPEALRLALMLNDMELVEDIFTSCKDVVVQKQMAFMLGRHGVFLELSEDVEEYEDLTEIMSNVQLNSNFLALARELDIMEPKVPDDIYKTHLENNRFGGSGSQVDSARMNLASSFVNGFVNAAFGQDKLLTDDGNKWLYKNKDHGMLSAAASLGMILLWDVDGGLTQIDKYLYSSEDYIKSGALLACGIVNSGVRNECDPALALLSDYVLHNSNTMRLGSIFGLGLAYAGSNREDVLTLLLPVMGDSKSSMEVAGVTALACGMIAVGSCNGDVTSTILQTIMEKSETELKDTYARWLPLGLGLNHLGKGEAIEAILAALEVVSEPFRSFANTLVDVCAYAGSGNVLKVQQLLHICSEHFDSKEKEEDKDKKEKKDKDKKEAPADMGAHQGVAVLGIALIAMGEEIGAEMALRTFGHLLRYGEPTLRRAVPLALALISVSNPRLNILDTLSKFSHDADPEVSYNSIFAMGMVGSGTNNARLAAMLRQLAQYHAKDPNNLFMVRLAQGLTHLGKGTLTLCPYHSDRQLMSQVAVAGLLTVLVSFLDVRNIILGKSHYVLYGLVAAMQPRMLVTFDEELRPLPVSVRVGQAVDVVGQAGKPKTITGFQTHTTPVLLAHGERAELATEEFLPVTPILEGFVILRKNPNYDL
USP14, sequence (P35998 whole entry partner): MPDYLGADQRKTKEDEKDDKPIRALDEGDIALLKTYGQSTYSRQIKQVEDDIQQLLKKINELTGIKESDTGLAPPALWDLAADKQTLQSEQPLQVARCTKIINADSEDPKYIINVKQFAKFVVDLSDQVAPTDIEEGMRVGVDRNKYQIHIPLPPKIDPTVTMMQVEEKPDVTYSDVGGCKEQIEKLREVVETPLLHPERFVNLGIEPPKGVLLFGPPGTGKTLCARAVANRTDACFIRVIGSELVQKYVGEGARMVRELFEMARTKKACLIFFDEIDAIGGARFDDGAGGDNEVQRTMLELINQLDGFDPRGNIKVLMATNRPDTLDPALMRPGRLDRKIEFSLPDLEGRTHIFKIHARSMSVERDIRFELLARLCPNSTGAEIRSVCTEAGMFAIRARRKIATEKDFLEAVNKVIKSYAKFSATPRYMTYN

Row | SMILES | IC50
1 | CN(c1nc(CC(=O)N2CCC(=O)CC2)nc2sc3c(c12)CCCC3)C1CC1 [Compound 14, 1-{2-[4-(Cyclopropyl-methyl-amino)-5,6,7,8-tetrahydro-benzo[4,5]thieno[2,3-d]pyrimidin-2-yl]-acetyl}-piperidin-4-one] | < 1000 nM

Same assay, conditions: average value from three experimental determinations; read-out: USP14 IC50

Row | SMILES | IC50
2 | COCc1nc(N(C)C2CC2)c2c3c(sc2n1)CCCC3 [Compound 4, Cyclopropyl-(2-methoxymethyl-5,6,7,8-tetrahydro-benzo[4,5]thieno[2,3-d]pyrimidin-4-yl)-methyl-amine] | 7500 nM
3 | CN(c1nc(CC(=O)O)nc2sc3c(c12)CCCC3)C1CC1 [Compound 2, 2-(4-(Cyclopropyl(methyl)amino)-5,6,7,8-tetrahydrobenzo[4,5]thieno[2,3-d]pyrimidin-2-yl)acetic acid] | 1600 nM
4 | CN(C)C(=O)Cc1nc(N(C)C2CC2)c2c3c(sc2n1)CCCC3 [Compound 3, 2-(4-(Cyclopropyl(methyl)amino)-5,6,7,8-tetrahydrobenzo[4,5]thieno[2,3-d]pyrimidin-2-yl)-N,N-dimethylacetamide] | 500 nM

Same assay, conditions: average value from three experimental determinations; reported as potency bands; read-out: IC50 (USP14 inhibition)

Row | SMILES | IC50
5 | CN(c1nc(CC(=O)N2CC[C@H](N(C)C)C2)nc2sc3c(c12)CCCC3)C1CC1 [Compound 24, 2-[4-(Cyclopropyl-methyl-amino)-5,6,7,8-tetrahydrobenzo[4,5]thieno[2,3-d]pyrimidin-2yl]-1-((S)-3-dimethylamino-pyrrolidin-1-yl)-ethanone] | < 1000 nM
6 | CN(c1nc(CC(=O)NCCc2ccncc2)nc2sc3c(c12)CCCC3)C1CC1 [Compound 22] | > 5000 nM
7 | CN(c1nc(CC(=O)O)nc2sc3c(c12)CCCCC3)C1CC1 [Compound 52, [4-(Cyclopropyl-methyl-amino)-6,7,8,9-tetrahydro-5H-10-thia-1,3-diazabenz[a]azulen-2-yl]-acetic acid] | > 5000 nM
8 | CN(c1nc(CC(=O)C(F)(F)F)nc2sc3c(c12)CCCC3)C1CC1 [Compound 51, 3-[4-(Cyclopropyl-methyl-amino)-5,6,7,8-tetrahydrobenzo[4,5]thieno[2,3-d]pyrimidin-2-yl]-1,1,1-trifluoro-propan-2-one] | 1000 to 5000 nM
9 | CN(c1nc(CC(=O)N2CCCC2CO)nc2sc3c(c12)CCCC3)C1CC1 (centres unmarked) [Compound 39, 2-[4-(Cyclopropyl-methyl-amino)-5,6,7,8-tetrahydro-benzo[4,5]thieno[2,3-d]pyrimidin-2-yl]-1-(2-hydroxymethyl-pyrrolidin-1-yl)-ethanone] | < 1000 nM
10 | CC(C)NC(=O)Cc1nc(N(C)C2CC2)c2c3c(sc2n1)CCCC3 [Compound 28, 2-[4-(Cyclopropyl-methyl-amino)-5,6,7,8-tetrahydro-benzo[4,5]thieno[2,3-d]pyrimidin-2-yl]-N-isopropyl-acetamide] | 1000 to 5000 nM
11 | CN(c1nc(CC(=O)N2CCCC(O)C2)nc2sc3c(c12)CCCC3)C1CC1 (centres unmarked) [Compound 33, 2-[4-(Cyclopropyl-methyl-amino)-5,6,7,8-tetrahydro-benzo[4,5]thieno[2,3-d]pyrimidin-2-yl]-1-(3-hydroxy-piperidin-1-yl)-ethanone] | < 1000 nM
12 | CN(c1nc(CC(=O)N2CCC(CO)C2)nc2sc3c(c12)CCCC3)C1CC1 (centres unmarked) [Compound 36, 2-[4-(Cyclopropyl-methyl-amino)-5,6,7,8-tetrahydro-benzo[4,5]thieno[2,3-d]pyrimidin-2-yl]-1-(3-hydroxymethyl-pyrrolidin-1-yl)-ethanone] | < 1000 nM
13 | CN(c1nc(COc2cccnc2)nc2sc3c(c12)CCCC3)C1CC1 [Compound 50, Cyclopropyl-methyl-[2-(pyridine-3-yloxymethyl)-5,6,7,8-tetrahydro-benzo[4,5]thieno[2,3-d]pyrimidin-4-yl]-amine] | > 5000 nM
14 | CN(c1nc(CC(=O)N2CCCC2C(N)=O)nc2sc3c(c12)CCCC3)C1CC1 (centres unmarked) [Compound 38, 1-(2-(4-(Cyclopropyl(methyl)amino)-5,6,7,8-tetrahydrobenzo[4,5]thieno[2,3-d]pyrimidin-2-yl)acetyl)pyrrolidine-2-carboxamide] | < 1000 nM
15 | CN(C)C1CCN(C(=O)Cc2nc(N(C)C3CC3)c3c4c(sc3n2)CCCC4)C1 (centres unmarked) [Compound 8, 2-[4-(Cyclopropyl-methyl-amino)-5,6,7,8-tetrahydro-benzo[4,5]thieno[2,3-d]pyrimidin-2-yl]-1-(3-dimethylamino-pyrrolidin-1-yl)-ethanone] | < 1000 nM
16 | CN(c1nc(CC(=O)N2CCC(C(N)=O)CC2)nc2sc3c(c12)CCCC3)C1CC1 [Compound 31, 1-{2-[4-(Cyclopropyl-methyl-amino)-5,6,7,8-tetrahydro-benzo[4,5]thieno[2,3-d]pyrimidin-2-yl]-acetyl}-piperidine-4-carboxylic acid amide] | < 1000 nM
17 | CCOC(=O)Cc1nc(N(C)CC)c2c3c(sc2n1)CCCC3 [Compound 40, [4-(Ethyl-methyl-amino)-5,6,7,8-tetrahydro-benzo[4,5]thieno[2,3-d]pyrimidin-2-yl]-acetic acid ethyl ester] | > 5000 nM
18 | CN(c1nc(CC(=O)Nc2ccon2)nc2sc3c(c12)CCCC3)C1CC1 [Compound 21] | 1000 to 5000 nM
19 | CN(c1nc(CC(=O)NCc2cccnc2)nc2sc3c(c12)CCCC3)C1CC1 [Compound 19] | 1000 to 5000 nM
20 | CN(c1nc(CC(N)=O)nc2sc3c(c12)CCCC3)C1CC1 [Compound 5, 2-(4-(Cyclopropyl(methyl)amino)-5,6,7,8-tetrahydrobenzo[4,5]thieno[2,3-d]pyrimidin-2-yl)acetamide] | < 1000 nM
21 | CN(c1nc(CC(=O)N2CCCCC2)nc2sc3c(c12)CCCC3)C1CC1 [Compound 26, 2-[4-(Cyclopropyl-methyl-amino)-5,6,7,8-tetrahydro-benzo[4,5]thieno[2,3-d]pyrimidin-2yl]-1-piperidin-1-yl-ethanone] | 1000 to 5000 nM

Row | SMILES | IC50
22 | CN(C)C(=O)Cc1nc(N(C)C)c2c3c(sc2n1)CCCC3 [Compound 43, 2-(4-Dimethylamino-5,6,7,8-tetrahydro-benzo[4,5]thieno[2,3-d]pyrimidin-2-yl)-N,N-dimethyl-acetamide] | 1000 to 5000 nM
23 | CN(c1nc(CC(=O)N2CCC(O)C2)nc2sc3c(c12)CCCC3)C1CC1 (centres unmarked) [Compound 29, 2-[4-(Cyclopropyl-methyl-amino)-5,6,7,8-tetrahydro-benzo[4,5]thieno[2,3-d]pyrimidin-2-yl]-1-(3-hydroxy-pyrrolidin-1-yl)-ethanone] | < 1000 nM
24 | CN(c1nc(CC(=O)NCCc2cccnc2)nc2sc3c(c12)CCCC3)C1CC1 [Compound 23] | 1000 to 5000 nM
25 | CN(c1nc(CC(=O)N2CC[C@@H](N(C)C)C2)nc2sc3c(c12)CCCC3)C1CC1 [Compound 30, 2-[4-(Cyclopropyl-methyl-amino)-5,6,7,8-tetrahydro-benzo[4,5]thieno[2,3-d]pyrimidin-2-yl]-1-((R)-3-dimethylamino-pyrrolidin-1-yl)-ethanone] | < 1000 nM
26 | CN(c1nc(CC(=O)NCCC(C)(C)O)nc2sc3c(c12)CCCC3)C1CC1 [Compound 35, 2-[4-(Cyclopropyl-methyl-amino)-5,6,7,8-tetrahydro-benzo[4,5]thieno[2,3-d]pyrimidin-2-yl]-N-(3-hydroxy-3-methyl-butyl)-acetamide] | 1000 to 5000 nM
27 | CN(C)C(=O)CCc1nc(N(C)C2CC2)c2c3c(sc2n1)CCCC3 [Compound 48, 3-[4-(Cyclopropyl-methyl-amino)-5,6,7,8-tetrahydro-[1]benzothiopheno[2,3-d]pyrimidin-2-yl]-N,N-dimethyl-propionamide] | 1000 to 5000 nM
28 | CN(c1nc(CO)nc2sc3c(c12)CCCC3)C1CC1 [Compound 49, [4-(Cyclopropyl-methyl-amino)-5,6,7,8-tetrahydro-benzo[4,5]thieno[2,3-d]pyrimidin-2-yl]-methanol] | 1000 to 5000 nM
29 | CN(C)C(=O)Cc1nc(N2CCC2)c2c3c(sc2n1)CCCC3 [Compound 44, 2-(4-(Azetidin-1-yl)-5,6,7,8-tetrahydrobenzo[4,5]thieno[2,3-d]pyrimidin-2-yl)-N,N-dimethylacetamide] | > 5000 nM
30 | CN(c1nc(CC(=O)N2CCC2)nc2sc3c(c12)CCCC3)C1CC1 [Compound 15, 1-(Azetidin-1-yl)-2-(4-(cyclopropyl(methyl)amino)-5,6,7,8-tetrahydrobenzo[4,5]thieno[2,3-d]pyrimidin-2-yl)ethanone] | < 1000 nM
31 | CN(c1nc(CC(=O)N2CCOCC2)nc2sc3c(c12)CCCC3)C1CC1 [Compound 9, 2-[4-(Cyclopropyl-methyl-amino)-5,6,7,8-tetrahydro-benzo[4,5]thieno[2,3-d]pyrimidin-2-yl]-1-morpholin-4-yl-ethanone] | < 1000 nM
32 | CN(c1nc(CC(=O)NCc2ccccn2)nc2sc3c(c12)CCCC3)C1CC1 [Compound 18] | 1000 to 5000 nM
33 | CN(c1nc(CC(=O)N2CC(O)C2)nc2sc3c(c12)CCCC3)C1CC1 [Compound 12, 2-(4-(Cyclopropyl(methyl)amino)-5,6,7,8-tetrahydrobenzo[4,5]thieno[2,3-d]pyrimidin-2-yl)-1-(3-hydroxyazetidin-1-yl)ethanone] | < 1000 nM
34 | CC(=O)N1CCN(C(=O)Cc2nc(N(C)C3CC3)c3c4c(sc3n2)CCCC4)CC1 [Compound 13, 1-(4-Acetyl-piperazin-1-yl)-2-[4-(Cyclopropyl-methyl-amino)-5,6,7,8-tetrahydro-[1]benzothieno[2,3-d]pyrimidin-2-yl]-ethanone] | < 1000 nM
35 | CN(c1nc(CC(=O)NCc2ccncc2)nc2sc3c(c12)CCCC3)C1CC1 [Compound 16] | 1000 to 5000 nM
36 | CN(c1nc(CC(=O)N2CCC(O)CC2)nc2sc3c(c12)CCCC3)C1CC1 [Compound 27, 2-[4-(Cyclopropyl-methyl-amino)-5,6,7,8-tetrahydro-benzo[4,5]thieno[2,3-d]pyrimidin-2-yl]-1-(4-hydroxy-piperidin-1-yl)-ethanone] | < 1000 nM
37 | CN(c1nc(CC(=O)N2CCC(N3CCOCC3)CC2)nc2sc3c(c12)CCCC3)C1CC1 [Compound 32, 2-[4-(Cyclopropyl-methyl-amino)-5,6,7,8-tetrahydro-benzo[4,5]thieno[2,3-d]pyrimidin-2-yl]-1-(4-morpholin-4-yl-piperidin-1-yl)-ethanone] | < 1000 nM
38 | CCN(C)c1nc(CC(=O)O)nc2sc3c(c12)CCCC3 [Compound 45, [4-(Ethyl-methyl-amino)-5,6,7,8-tetrahydro-benzo[4,5]thieno[2,3-d]pyrimidin-2-yl]-acetic acid] | > 5000 nM

From patent US9399647B2, “Proteasome activity modulating compounds” (Proteostasis Therapeutics, Inc., priority 2012, dated 2016)
